From patent US20250296971A1, “GASTRIC INHIBITORY PEPTIDE RECEPTOR LIGANDS” (priority 2021, published 2025)
*1 amine or outer side, *2 acyl side, *3 side chain or, on linkers, in order; H or OH if unused. Where a SMILES comes first, the peptide text is derived from it. Bridges are numbered along the chain shown (N, C = ends). [ ]: non-standard residue; d: D form. The star is where a group is joined. X5 = NC(=O)[C@H](CCCCNC(=O)CN1CCN(CC(=O)O)CCN(CC(=O)O)CCN(CC(=O)O)CC1)NC(=O)CCC(=O)NCCCOCCOCCOCCCN*; X3 = O=C(O)CN1CCN(CC(=O)O)CCN(CC(=O)NCCCOCCOCCOCCCN*)CCN(CC(=O)O)CC1; NH(1-deoxy-D-glucityl) = OC[C@@H](O)[C@@H](O)[C@H](O)[C@@H](O)CN*; DOTA = O=C(O)CN1CCN(CC(=O)O)CCN(CC(=O)*)CCN(CC(=O)O)CC1; Trp(5-Cl) = N[C@@H](Cc1c[nH]c2ccc(Cl)cc12)C(=O)O; Pyridine(2,6-diCH2) = c1cc(C[*:1])nc(C[*:2])c1; Pro(trans-4-F) = O=C(O)[C@@H]1C[C@@H](F)CN1; Pro(4R-NH2) = N[C@H]1CN[C@H](C(=O)O)C1; 1Nal = N[C@@H](Cc1cccc2ccccc12)C(=O)O; mXylylene = c1cc(C[*:1])cc(C[*:2])c1; Glutaryl = O=C(CCCC(=O)[*:2])[*:1]; X7 = c1cc(CSCCN[*:2])cc(C[*:1])c1; Hyp = O=C(O)[C@@H]1C[C@@H](O)CN1; X1 = O=C(CN1CCC(N[*:1])CC1)[*:2]; tBuAla = CC(C)(C)C[C@H](N)C(=O)O; Suc = O=C(CCC(=O)[*:2])[*:1]; hCys = N[C@@H](CCS)C(=O)O; αMeS = C[C@](N)(CO)C(=O)O; Api = NC1(C(=O)O)CCNCC1; Thp = NC1(C(=O)O)CCOCC1; Aib = CC(C)(N)C(=O)O

These compounds were tested against T1, GIPR (CHO-K1-hGIPR cells) (Homo sapiens, UniProt P48546) (assay: FACS binding assay). Conditions: competition with 20 nM GIP-057, 4° C. for 1 hour, read-out: pIC50 Category (converted).
T1 construct: host or cells: CHO-K1
T1 sequence (P48546 22-466): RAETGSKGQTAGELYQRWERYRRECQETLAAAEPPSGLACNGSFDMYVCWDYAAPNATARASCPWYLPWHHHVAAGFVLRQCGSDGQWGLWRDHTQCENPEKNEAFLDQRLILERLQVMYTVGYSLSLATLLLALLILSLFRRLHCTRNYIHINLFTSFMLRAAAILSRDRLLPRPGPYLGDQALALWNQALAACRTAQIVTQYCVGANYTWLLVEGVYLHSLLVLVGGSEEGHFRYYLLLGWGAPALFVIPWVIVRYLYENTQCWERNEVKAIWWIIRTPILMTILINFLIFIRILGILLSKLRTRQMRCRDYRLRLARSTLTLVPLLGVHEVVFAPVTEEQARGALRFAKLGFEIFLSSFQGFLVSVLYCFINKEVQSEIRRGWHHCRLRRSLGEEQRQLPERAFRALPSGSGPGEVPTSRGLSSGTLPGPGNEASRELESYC
Procedure: In order to determine binding of compounds according to the present invention to GIPR-expressing cells, a FACS binding assay was established.
CHO-K1-hGIPR cells (GenScript Biotech, #M00486) were cultured in Ham's F12 medium (Sigma-Aldrich, #N4888) including 10% fetal calf serum (FCS), 2 mM L-glutamine, 100 U/mL penicillin, 100 μg/mL streptomycin, 200 μg/mL Zeocin and 100 μg/mL HygromycinB. Cells were detached with Accutase (Biolegend, #BLD-423201) and washed in FACS buffer (PBS including 1% FCS). Cells were diluted in FACS buffer to a final concentration of 500.000 cells per mL. 200 μL of the cell suspension were transferred to a u-shaped non-binding 96-well plate (Greiner) and cells were washed in ice-cold FACS buffer.
Cells were washed twice in FACS buffer. An additional incubation step with 1 μg/mL APC-Streptavidin (Miltenyi; #130-106-791) in 50 μL FACS buffer for 30 min on ice was performed followed by two washes with FACS buffer.
Cells were analyzed in an Attune NxT flow cytometer. Median fluorescence intensities (MFI) of the APC/Cy5-channel were calculated by Attune NxT software. MFI values were plotted against peptide concentration and four parameter logistic (4PL) curve fitting and EC50/pEC50 or IC50/pIC50 calculations were performed using ActivityBase software.

Row | SMILES | IC50 [nM]
1 | CC[C@H](C)[C@@H]1NC(=O)[C@H](CC(C)C)NC(=O)[C@H](C)NC(=O)[C@@H](NC(=O)[C@H](CC(C)C)NC(=O)[C@H](CCC(=O)O)NC(=O)[C@@H]2CCCN2C(=O)[C@H](Cc2c[nH]c3ccccc23)NC(C)=O)CSCc2cccc(c2)CSC[C@@H](C(N)=O)NC1=O [GIP-325, Ac-Trp-Pro-Glu-Leu-[Cys(3MeBn)-Ala-Leu-Ile-Cys]-NH2] (Ac-WPELCALIC-NH2; linker 5-9 via mXylylene) | > 1000
2 | CC[C@H](C)[C@@H]1NC(=O)[C@H](CC(C)C)NC(=O)C2(CCOCC2)NC(=O)[C@@H](NC(=O)[C@@H](CC(C)C)NC(=O)[C@H](CCC(=O)O)NC(=O)[C@@H]2C[C@@H](O)CN2C(=O)[C@H](Cc2c[nH]c3ccc(Cl)cc23)NC(=O)[C@H](Cc2c[nH]c3ccccc23)NC(=O)[C@H](CC(=O)O)NC(C)=O)CCSSCC[C@@H](C(N)=O)NC1=O [GIP-363, Ac-Asp-Trp-5Clw-Hyp-Glu-leu-[Hey-Thp-Leu-Ile-Hcy]-NH2] (Ac-DW[Trp(5-Cl)][Hyp]E[dL][hCys][Thp]LI[hCys]-NH2; disulfide 7-11) | 10 to 79.4
3 | CC[C@H](C)[C@@H]1NC(=O)[C@H](CC(C)C)NC(=O)C(C)(C)NC(=O)[C@@H](NC(=O)[C@H](CCCCN)NC(=O)[C@H](CCC(=O)O)NC(=O)[C@@H]2CCCN2C(=O)[C@H](Cc2cccc3ccccc23)NC(=O)[C@H](Cc2c[nH]c3ccccc23)NC(=O)[C@H](CC(=O)O)NC(C)=O)CSCc2cccc(c2)CSC[C@@H](C(N)=O)NC1=O [GIP-345, Ac-Asp-Trp-1Ni-Pro-Glu-Lys-[Cys(3MeBn)-Aib-Leu-Ile-Cys]-NH2] (Ac-DW[1Nal]PEKC[Aib]LIC-NH2; linker 7-11 via mXylylene) | > 1000
4 | CC[C@H](C)[C@@H]1NC(=O)[C@H](CC(C)C)NC(=O)[C@H](C)NC(=O)[C@@H](NC(=O)[C@H](CC(C)C)NC(=O)[C@H](CCC(=O)O)NC(=O)[C@@H]2CCCN2C(=O)[C@H](Cc2c[nH]c3ccccc23)NC(=O)[C@H](Cc2c[nH]c3ccccc23)NC(=O)CCC(=O)O)CSCc2cccc(c2)CSC[C@@H](C(N)=O)NC1=O [GIP-255, HO-Succinyl-Trp-Trp-Pro-Glu-Leu-[Cys(3MeBn)-Ala-Leu-Ile-Cys]-NH2] (Suc-WWPELCALIC-NH2; linker 6-10 via mXylylene) | 10 to 79.4
5 | CC(=O)N[C@@H](CC(=O)O)C(=O)N[C@@H](Cc1c[nH]c2ccccc12)C(=O)N[C@@H](Cc1c[nH]c2ccc(Cl)cc12)C(=O)N1C[C@H](O)C[C@H]1C(=O)N[C@@H](CCC(=O)O)C(=O)N[C@H](CC(C)C)C(=O)N[C@H]1CSCc2cccc(n2)CSC[C@@H](C(N)=O)NC(=O)[C@H](CCCNC(=N)N)NC(=O)[C@H](CC(C)C)NC(=O)C2(CCOCC2)NC1=O [GIP-353, Ac-Asp-Trp-5Clw-Hyp-Glu-leu-[Cys(2Lut)-Thp-Leu-Arg-Cys]-NH2] (Ac-DW[Trp(5-Cl)][Hyp]E[dL]C[Thp]LRC-NH2; linker 7-11 via Pyridine(2,6-diCH2)) | > 1000

Same assay, conditions: competition with 20 nM GIP-057, 4° C., 1 hour, read-out: pIC50 Category (converted)

Row | SMILES | IC50 [nM]
6 | CC[C@H](C)[C@@H]1NC(=O)[C@H](CC(C)C)NC(=O)C2(CCN(C(=O)CN3CCN(CC(=O)O)CCN(CC(=O)O)CCN(CC(=O)O)CC3)CC2)NC(=O)[C@@H](NC(=O)[C@H](CC(C)C)NC(=O)[C@H](CCC(=O)O)NC(=O)[C@@H]2C[C@@H](N)CN2C(=O)[C@H](Cc2c[nH]c3ccc(Cl)cc23)NC(=O)[C@H](Cc2c[nH]c3ccccc23)NC(=O)[C@H](CC(=O)O)NC(=O)CCCC(=O)NC[C@H](O)[C@@H](O)[C@H](O)[C@H](O)CO)CSCc2cccc(n2)CSC[C@@H](C(=O)NC2CCN(CC(=O)N[C@H](CCC(=O)NC[C@H](O)[C@@H](O)[C@H](O)[C@H](O)CO)C(N)=O)CC2)NC1=O [GIP-035, AGLU-Glutar-Asp-Trp-5Clw-Tap-Glu-Leu-[Cys(2Lut)-Apc(DOTA)-Leu-Ile-Cys]-APAc-glu(AGLU)-NH2] ({NH(1-deoxy-D-glucityl)-Glutaryl}-DW[Trp(5-Cl)][Pro(4R-NH2)]ELC[Api](DOTA)LIC[X1][dE](NH(1-deoxy-D-glucityl))-NH2; linker 7-11 via Pyridine(2,6-diCH2)) | < 10
7 | CC[C@H](C)[C@@H]1NC(=O)[C@H](CC(C)C)NC(=O)C2(CCOCC2)NC(=O)[C@@H](NC(=O)[C@@H](CC(C)C)NC(=O)[C@H](CCC(=O)O)NC(=O)[C@@H]2C[C@@H](F)CN2C(=O)[C@H](Cc2c[nH]c3ccc(Cl)cc23)NC(=O)[C@H](Cc2c[nH]c3ccccc23)NC(=O)[C@H](CC(=O)O)NC(C)=O)CSCc2cccc(n2)CSC[C@@H](C(N)=O)NC1=O [GIP-187, Ac-Asp-Trp-5Clw-4Tfp-Glu-leu-[Cys(2Lut)-Thp-Leu-Ile-Cys]-NH2] (Ac-DW[Trp(5-Cl)][Pro(trans-4-F)]E[dL]C[Thp]LIC-NH2; linker 7-11 via Pyridine(2,6-diCH2)) | < 10
8 | CC[C@H](C)[C@@H]1NC(=O)[C@H](CC(C)C)NC(=O)C2(CCOCC2)NC(=O)[C@@H](NC(=O)[C@@H](CC(C)C)NC(=O)[C@H](CCC(=O)O)NC(=O)[C@@H]2C[C@@H](O)CN2C(=O)[C@H](Cc2c[nH]c3ccc(Cl)cc23)NC(=O)[C@H](Cc2c[nH]c3ccccc23)NC(=O)CCC(=O)O)CSCc2cccc(n2)CSC[C@@H](C(=O)N[C@H](CCCCNC(=O)CN2CCN(CC(=O)O)CCN(CC(=O)O)CCN(CC(=O)O)CC2)C(N)=O)NC1=O [GIP-116, HO-Succinyl-Trp-5Clw-Hyp-Glu-leu-[Cys(2Lut)-Thp-Leu-Ile-Cys]-lys(DOTA)-NH2] (Suc-W[Trp(5-Cl)][Hyp]E[dL]C[Thp]LIC[dK](DOTA)-NH2; linker 6-10 via Pyridine(2,6-diCH2)) | < 10
9 | CC[C@H](C)[C@@H]1NC(=O)[C@H](CC(C)C)NC(=O)C(C)(C)NC(=O)[C@@H](NC(=O)[C@H](CC(C)(C)C)NC(=O)[C@H](CCC(=O)O)NC(=O)[C@@H]2CCCN2C(=O)[C@H](Cc2c[nH]c3ccccc23)NC(=O)[C@H](Cc2c[nH]c3ccccc23)NC(=O)[C@H](CC(=O)O)NC(C)=O)CSCc2cccc(c2)CSC[C@@H](C(=O)NCCCOCCOCCOCCCNC(=O)CCC(=O)N[C@@H](CCCCNC(=O)CN2CCN(CC(=O)O)CCN(CC(=O)O)CCN(CC(=O)O)CC2)C(N)=O)NC1=O [GIP-132, Ac-Asp-Trp-Trp-Pro-Glu-Npg-[Cys(3MeBn)-Aib-Leu-Ile-Cys]-Ttds-Lys(DOTA)-NH2] (Ac-DWWPE[tBuAla]C[Aib]LIC-X5; linker 7-11 via mXylylene) | 10 to 79.4
10 | CC[C@H](C)[C@@H]1NC(=O)[C@H](CC(C)C)NC(=O)[C@](C)(CO)NC(=O)[C@@H](NC(=O)[C@@H](CC(C)C)NC(=O)[C@H](CCC(=O)O)NC(=O)[C@@H]2CCCN2C(=O)[C@H](Cc2c[nH]c3ccc(Cl)cc23)NC(=O)[C@H](Cc2c[nH]c3ccccc23)NC(=O)[C@H](CC(=O)O)NC(=O)CCC(=O)NCCCOCCOCCOCCCNC(=O)CN2CCN(CC(=O)O)CCN(CC(=O)O)CCN(CC(=O)O)CC2)CSCc2cccc(c2)CSCCNC1=O [GIP-101, DOTA-Ttds-Asp-Trp-5Clw-Pro-Glu-leu-[Cys(3MeBn)-Ams-Leu-Ile-AET]] ({X3-Suc}-DW[Trp(5-Cl)]PE[dL]C[αMeS]LI; linker 7-C via X7) | < 10
11 | CC[C@H](C)[C@@H]1NC(=O)[C@H](CC(C)C)NC(=O)C2(CCOCC2)NC(=O)[C@@H](NC(=O)[C@@H](CC(C)C)NC(=O)[C@H](CCC(=O)O)NC(=O)[C@@H]2C[C@@H](O)CN2C(=O)[C@H](Cc2c[nH]c3ccc(Cl)cc23)NC(=O)[C@H](Cc2ccccc2)NC(=O)[C@H](CC(=O)O)NC(C)=O)CSCc2cccc(n2)CSC[C@@H](C(N)=O)NC1=O [GIP-224, Ac-Asp-Phe-5Clw-Hyp-Glu-leu-[Cys(2Lut)-Thp-Leu-Ile-Cys]-NH2] (Ac-DF[Trp(5-Cl)][Hyp]E[dL]C[Thp]LIC-NH2; linker 7-11 via Pyridine(2,6-diCH2)) | < 10
12 | CC[C@H](C)[C@@H]1NC(=O)[C@H](CC(C)C)NC(=O)C2(CCOCC2)NC(=O)[C@@H](NC(=O)[C@@H](CC(C)C)NC(=O)[C@H](CCC(=O)O)NC(=O)[C@@H]2C[C@@H](O)CN2C(=O)[C@H](Cc2c[nH]c3ccc(Cl)cc23)NC(=O)[C@H](Cc2c[nH]c3ccccc23)NC(=O)[C@H](CC(=O)O)NC(=O)CN2CCN(CC(=O)O)CCN(CC(=O)O)CCN(CC(=O)O)CC2)CSCc2cccc(n2)CSC[C@@H](C(N)=O)NC1=O [GIP-125, DOTA-Asp-Trp-5Clw-Hyp-Glu-leu-[Cys(2Lut)-Thp-Leu-Ile-Cys]-NH2] ({DOTA}-DW[Trp(5-Cl)][Hyp]E[dL]C[Thp]LIC-NH2; linker 7-11 via Pyridine(2,6-diCH2)) | < 10
